These results are taken from ChEMBL document CHEMBL1201862, “PubChem BioAssay data set” (2004).

The target of assay [1] is Peroxisome proliferator-activated receptor gamma/Nuclear receptor corepressor 2 (Homo sapiens, UniProt P37231+Q9Y618). It is filed as functional.
In assay [2] the target is Photoreceptor-specific nuclear receptor (Homo sapiens, UniProt Q9Y5X4). The class given is functional.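 Also: potency for compounds that break the NR2E3 corepressor complex and count as activators.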
The target of the next assay is Nonstructural protein 1 (Influenza A virus, UniProt Q194T2). The class given is functional, Influenza A virus (A/California/07/2009(H1N1)).
The subject of the next assay is Streptococcus. Nature of the assay: GAS UMAA2166 growth inhibition – luminescence, BacTiterGlo, counter-screen for streptokinase expression inhibitor project, dose response (AID 1915).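 Also: potency for reduction of bacterial viability or growth.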 The class given is functional, organism-based. For orientation: A counterscreen serves to expose hits that act by an unwanted route or on another target.
Assay [3] in a line: cells. It is filed as functional, cell-based.
Assay [4] is described as follows: Luminescence-based counterscreen assay for KLF5 inhibitors: dose response cell-based high throughput screening assay to identify cytotoxic compounds using the IEC-6 intestinal epithelial cell line. [Related pubchem assays: 1700 (Primary screen.), 1834 (Confirmation screen.), 1858 (Summary AID.), 1905 (Counterscreen.)]. It is filed as functional.
The test system of assay [5] is Streptococcus sp. 'group A'. In words: Streptococcus pyogenes SK(-)GAS viability under kanamycin – luminescence, BacTiterGlo, confirmation, counter-screen for streptokinase expression inhibitor project, dose response (AID 1900). The class given is functional, organism-based.
A short description of assay [6]: cells. The class given is functional, cell-based. The source holds these as a separate data set.
The next assay addresses Galanin receptor type 2 (Homo sapiens, UniProt O43603). Nature of the assay: Dose Response cell-based high-throughput screening assay to identify agonists of galanin receptor 2 (GALR2). [Related pubchem assays: 864 ]. The class given is functional.
Another assay has as its system INS1. In words: INS-1E survival protection against cytokine death – cell-based, luminescence, retest, dose response (AID 449756).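 Also: cell death triggered by IL-1 beta plus TNF-alpha plus IFN-gamma mixture; protective hits raise ATP signal compared with cytokine alone wells.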 The class given is functional. Particulars: Rattus norvegicus.
Assay [7] can be described thus: Trypanosoma cruzi growth suppression in host cells – NIH3T3 host cells, beta-gal luminescence, confirmation (AID 2044).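 Also: intracellular parasites grown in NIH/3T3 mouse fibroblasts as host cells; luminescent beta-galactosidase reporter signal from transgenic T. cruzi replicating inside host cells; inhibitors lower the luminescence signal.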 It is filed as functional, cell-based.
Assay [8] can be described thus: NIH3T3 cell viability loss – ATP luminescence, mouse fibroblasts, counter-screen, dose response (AID 2010).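 Also: cells exposed to compound for about 90 hours before reading.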 It is filed as functional, cell-based.
The next assay addresses T1, Streptokinase A (Streptococcus pyogenes serotype M1, UniProt P10520).
T1 sequence (P10520 whole entry): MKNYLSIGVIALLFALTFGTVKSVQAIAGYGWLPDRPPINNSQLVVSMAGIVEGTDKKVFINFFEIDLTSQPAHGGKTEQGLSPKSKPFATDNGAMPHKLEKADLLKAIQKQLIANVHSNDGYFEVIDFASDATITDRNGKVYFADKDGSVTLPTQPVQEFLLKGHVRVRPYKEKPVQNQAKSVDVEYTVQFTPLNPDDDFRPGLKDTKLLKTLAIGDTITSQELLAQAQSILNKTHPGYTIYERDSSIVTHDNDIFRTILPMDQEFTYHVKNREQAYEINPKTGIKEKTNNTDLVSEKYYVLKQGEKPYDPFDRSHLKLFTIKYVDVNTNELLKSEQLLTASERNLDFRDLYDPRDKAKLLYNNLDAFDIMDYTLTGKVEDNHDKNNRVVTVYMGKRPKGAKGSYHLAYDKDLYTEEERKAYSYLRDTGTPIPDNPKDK
In words: viability-normalized secreted streptokinase activity reduction – plasminogen activation absorbance, OD405, dose response (AID 1914).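 Also: secreted streptokinase activity via plasminogen activation per viability signal from cell pellet.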 It is filed as functional, Streptococcus pyogenes M1 GAS.

Assay [9] has as its target Lysosomal acid glucosylceramidase (Homo sapiens, UniProt P04062). Nature of the assay: Dose response cell-based high throughput screening assay to identify enhancers of beta-glucosidase activity. [Related pubchem assays: 784 ]. It is filed as functional.
The target of assay [10] is T2, Nucleotide-binding oligomerization domain-containing protein 1 (Homo sapiens, UniProt Q9Y239).
T2 sequence (Q9Y239 whole entry): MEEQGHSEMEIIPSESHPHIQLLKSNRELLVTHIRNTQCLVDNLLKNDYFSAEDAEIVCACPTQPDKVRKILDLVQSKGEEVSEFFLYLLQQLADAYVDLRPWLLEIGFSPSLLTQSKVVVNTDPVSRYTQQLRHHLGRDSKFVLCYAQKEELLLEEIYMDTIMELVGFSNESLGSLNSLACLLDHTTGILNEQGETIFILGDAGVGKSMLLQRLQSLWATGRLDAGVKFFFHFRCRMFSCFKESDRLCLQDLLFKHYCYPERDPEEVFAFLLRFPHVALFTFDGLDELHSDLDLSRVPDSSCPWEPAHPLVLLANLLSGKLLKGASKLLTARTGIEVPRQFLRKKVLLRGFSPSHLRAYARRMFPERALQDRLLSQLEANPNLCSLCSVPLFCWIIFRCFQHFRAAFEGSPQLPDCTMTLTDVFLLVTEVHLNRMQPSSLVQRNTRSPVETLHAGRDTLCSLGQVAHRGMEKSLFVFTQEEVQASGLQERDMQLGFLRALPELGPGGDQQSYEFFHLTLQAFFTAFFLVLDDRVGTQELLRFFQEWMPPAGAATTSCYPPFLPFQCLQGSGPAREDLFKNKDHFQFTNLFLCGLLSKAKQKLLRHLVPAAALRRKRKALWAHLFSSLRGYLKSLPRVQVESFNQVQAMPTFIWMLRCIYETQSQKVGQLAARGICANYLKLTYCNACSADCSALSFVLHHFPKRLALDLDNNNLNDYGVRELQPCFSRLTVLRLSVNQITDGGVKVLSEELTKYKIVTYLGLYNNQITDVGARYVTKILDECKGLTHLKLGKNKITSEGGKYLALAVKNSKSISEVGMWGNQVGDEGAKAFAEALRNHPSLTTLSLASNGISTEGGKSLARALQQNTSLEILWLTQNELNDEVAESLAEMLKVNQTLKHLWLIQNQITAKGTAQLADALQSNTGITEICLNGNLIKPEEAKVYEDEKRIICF
Nature of the assay: SAR analysis of compounds that inhibit NOD1 - Set 3. [Related pubchem assays (depositor defined):AID1566, AID1575, AID1578, AID1849, AID1852, AID2333, AID2335, AID2466]. It is filed as functional.

Assay [11] deals with Glyceraldehyde-3-phosphate dehydrogenase (Homo sapiens, UniProt P04406).
For assay [12], the target named is Nucleotide-binding oligomerization domain-containing protein 2 (Homo sapiens, UniProt Q9HC29). In words: inhibition of MDP-driven NOD2 NF-kB reporter – cell-based, set 3, SAR follow-up (AID 2799). It is filed as functional.
In assay [13] the target is T3, Bcl-2-related protein A1 (Mus musculus, UniProt Q07440).
T3 sequence (Q07440 whole entry): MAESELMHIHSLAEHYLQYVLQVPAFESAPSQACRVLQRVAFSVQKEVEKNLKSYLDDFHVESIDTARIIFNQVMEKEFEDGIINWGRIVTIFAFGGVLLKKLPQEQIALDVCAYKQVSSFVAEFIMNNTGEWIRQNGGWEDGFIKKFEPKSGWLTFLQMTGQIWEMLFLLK
In words: Bfl-1 binding inhibitors, SAR follow-up, biochemical, fluorescence polarization (AID 1070).

Another assay has as its system HEK293. Nature of the assay: SAR analysis of compounds that are cytotoxic to HEK293 - Set 3. [Related pubchem assays (depositor defined):AID1575, AID1578, AID1848, AID1849, AID2001, AID2333, AID2334, AID2335, AID2337, AID2469]. The settings on record: Homo sapiens. It is filed as functional, cell-based.
For assay [14], the target named is T3, Bcl-2-related protein A1. In words: small-molecule antagonists of Bfl-1/BH3 interaction – biochemical, TR-FRET, mouse Bfl-1, confirmation (AID 621).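 Also: TR-FRET binding of GST-Bfl-1 to FITC-labelled Bid peptide via terbium antibody.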 A general note: TR-FRET usually uses a lanthanide donor and a delayed reading to cut background.
A further assay concerns the target Tumor necrosis factor (Homo sapiens, UniProt P01375). Nature of the assay: analog potency on TNFa NF-kB signaling – cell-based, set 3, SAR follow-up (AID 2801). It is filed as functional.
Another assay has as its target NADPH oxidase 1 (Homo sapiens, UniProt Q9Y5S8). It is filed as functional, cell-based.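 Also: Cell-based assay with luminescence read-out, IC50 derived from inhibitor dose-response curves; intracellular ROS from endogenous NOX1 in intact HT29 colon cancer cells; potency of inhibitors that lower the ROS luminescence signal.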
The nature of assay [15]: A Cell Based Assay for the Identification of Probe candidate Compounds with Anti- Venezuelan Equine Encephalitis virus. [Related pubchem assays: 2409, 2419, 1621, 2238, 2405, 2024, 2065, 2402, 2414, 1635, 1650, 2244 ]. It is filed as functional.
Assay [16] deals with Vero. In words: Vero 76 cell viability after compound exposure – Vero 76 cells, synthesized analogs, cytotoxicity control for West Nile virus antiviral project, SAR follow-up (AID 2414). It is filed as functional. Particulars: Chlorocebus sabaeus.
Assay [17] deals with Vero. Nature of the assay: Vero cell viability after compound exposure – synthesized analogs, set II, cytotoxicity control for West Nile virus antiviral project, SAR follow-up (AID 2402). It is filed as functional. The settings on record: Chlorocebus sabaeus.
Assay [18] deals with Protein-tyrosine kinase 2-beta (Homo sapiens, UniProt Q14289).
Assay [19] addresses T4, Alkaline phosphatase, tissue-nonspecific isozyme (Homo sapiens, UniProt P05186).
T4 sequence (P05186 whole entry): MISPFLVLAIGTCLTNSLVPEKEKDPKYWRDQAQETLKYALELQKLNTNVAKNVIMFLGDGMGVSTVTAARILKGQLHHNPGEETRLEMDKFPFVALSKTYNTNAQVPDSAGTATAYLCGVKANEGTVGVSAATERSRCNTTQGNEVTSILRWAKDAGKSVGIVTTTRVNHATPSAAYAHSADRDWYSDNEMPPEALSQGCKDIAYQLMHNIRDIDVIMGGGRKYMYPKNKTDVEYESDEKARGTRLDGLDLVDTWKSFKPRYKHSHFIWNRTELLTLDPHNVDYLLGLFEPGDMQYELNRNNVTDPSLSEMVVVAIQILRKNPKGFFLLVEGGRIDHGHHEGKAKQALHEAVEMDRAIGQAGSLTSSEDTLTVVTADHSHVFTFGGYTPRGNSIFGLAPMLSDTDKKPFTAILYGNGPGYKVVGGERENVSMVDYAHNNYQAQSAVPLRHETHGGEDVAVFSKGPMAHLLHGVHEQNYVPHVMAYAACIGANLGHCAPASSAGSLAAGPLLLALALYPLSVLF

Assay [20] in a line: mRNA 3' processing disruption, beta-gal signal increase – luminescence, S. cerevisiae SKY197-pL101, dose response (AID 2525). The class given is functional, cell-based.
Assay [21] in a line: Luminescence Cell-Based Dose Confirmation HTS to Identify Inhibitors of Polyadenylation. It is filed as functional.
In another assay the target is T5, Bcl-2-like protein 10 (Homo sapiens, UniProt Q9HD36).
T5 sequence (Q9HD36 whole entry): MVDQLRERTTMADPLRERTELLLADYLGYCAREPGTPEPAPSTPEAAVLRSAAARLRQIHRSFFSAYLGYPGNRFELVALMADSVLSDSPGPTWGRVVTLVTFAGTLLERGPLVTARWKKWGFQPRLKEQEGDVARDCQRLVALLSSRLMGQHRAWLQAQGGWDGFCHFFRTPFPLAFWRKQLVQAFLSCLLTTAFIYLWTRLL
Nature of the assay: Concentration-response of Bcl-B inhibitors by biochemical FP with TR3 (AID 1243). It is filed as functional.

Activity calls are given as the source filed them.

NADPH oxidase 1, sequence (Q9Y5S8 whole entry): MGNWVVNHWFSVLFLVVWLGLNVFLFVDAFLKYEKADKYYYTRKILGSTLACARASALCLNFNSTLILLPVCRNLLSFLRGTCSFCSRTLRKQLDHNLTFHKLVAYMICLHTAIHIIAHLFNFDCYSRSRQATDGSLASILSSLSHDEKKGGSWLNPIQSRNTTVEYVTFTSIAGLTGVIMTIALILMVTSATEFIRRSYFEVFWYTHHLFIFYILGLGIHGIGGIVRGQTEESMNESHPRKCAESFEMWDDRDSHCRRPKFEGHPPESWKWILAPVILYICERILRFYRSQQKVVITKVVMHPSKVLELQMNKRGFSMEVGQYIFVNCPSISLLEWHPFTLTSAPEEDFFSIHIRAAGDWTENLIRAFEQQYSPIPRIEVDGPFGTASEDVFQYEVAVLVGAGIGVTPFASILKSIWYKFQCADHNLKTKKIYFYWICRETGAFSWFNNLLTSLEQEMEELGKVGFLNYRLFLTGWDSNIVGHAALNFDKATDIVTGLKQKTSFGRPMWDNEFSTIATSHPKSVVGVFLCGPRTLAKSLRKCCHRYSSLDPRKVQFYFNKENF
Peroxisome proliferator-activated receptor gamma/Nuclear receptor corepressor 2, sequence (P37231 whole entry): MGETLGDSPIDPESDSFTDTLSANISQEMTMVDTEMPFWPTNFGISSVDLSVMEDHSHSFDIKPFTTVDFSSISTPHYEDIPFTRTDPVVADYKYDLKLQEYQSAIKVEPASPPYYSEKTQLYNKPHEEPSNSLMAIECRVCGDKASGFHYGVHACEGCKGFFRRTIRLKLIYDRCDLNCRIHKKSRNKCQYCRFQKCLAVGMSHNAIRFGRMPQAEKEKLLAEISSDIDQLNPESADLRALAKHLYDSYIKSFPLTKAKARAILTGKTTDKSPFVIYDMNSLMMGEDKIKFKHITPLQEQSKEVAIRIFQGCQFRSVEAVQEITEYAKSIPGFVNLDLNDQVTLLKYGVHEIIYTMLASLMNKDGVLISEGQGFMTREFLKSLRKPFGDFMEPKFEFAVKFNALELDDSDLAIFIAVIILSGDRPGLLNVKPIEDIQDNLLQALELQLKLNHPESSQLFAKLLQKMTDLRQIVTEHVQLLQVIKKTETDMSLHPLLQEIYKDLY
Peroxisome proliferator-activated receptor gamma/Nuclear receptor corepressor 2, sequence (Q9Y618 whole entry): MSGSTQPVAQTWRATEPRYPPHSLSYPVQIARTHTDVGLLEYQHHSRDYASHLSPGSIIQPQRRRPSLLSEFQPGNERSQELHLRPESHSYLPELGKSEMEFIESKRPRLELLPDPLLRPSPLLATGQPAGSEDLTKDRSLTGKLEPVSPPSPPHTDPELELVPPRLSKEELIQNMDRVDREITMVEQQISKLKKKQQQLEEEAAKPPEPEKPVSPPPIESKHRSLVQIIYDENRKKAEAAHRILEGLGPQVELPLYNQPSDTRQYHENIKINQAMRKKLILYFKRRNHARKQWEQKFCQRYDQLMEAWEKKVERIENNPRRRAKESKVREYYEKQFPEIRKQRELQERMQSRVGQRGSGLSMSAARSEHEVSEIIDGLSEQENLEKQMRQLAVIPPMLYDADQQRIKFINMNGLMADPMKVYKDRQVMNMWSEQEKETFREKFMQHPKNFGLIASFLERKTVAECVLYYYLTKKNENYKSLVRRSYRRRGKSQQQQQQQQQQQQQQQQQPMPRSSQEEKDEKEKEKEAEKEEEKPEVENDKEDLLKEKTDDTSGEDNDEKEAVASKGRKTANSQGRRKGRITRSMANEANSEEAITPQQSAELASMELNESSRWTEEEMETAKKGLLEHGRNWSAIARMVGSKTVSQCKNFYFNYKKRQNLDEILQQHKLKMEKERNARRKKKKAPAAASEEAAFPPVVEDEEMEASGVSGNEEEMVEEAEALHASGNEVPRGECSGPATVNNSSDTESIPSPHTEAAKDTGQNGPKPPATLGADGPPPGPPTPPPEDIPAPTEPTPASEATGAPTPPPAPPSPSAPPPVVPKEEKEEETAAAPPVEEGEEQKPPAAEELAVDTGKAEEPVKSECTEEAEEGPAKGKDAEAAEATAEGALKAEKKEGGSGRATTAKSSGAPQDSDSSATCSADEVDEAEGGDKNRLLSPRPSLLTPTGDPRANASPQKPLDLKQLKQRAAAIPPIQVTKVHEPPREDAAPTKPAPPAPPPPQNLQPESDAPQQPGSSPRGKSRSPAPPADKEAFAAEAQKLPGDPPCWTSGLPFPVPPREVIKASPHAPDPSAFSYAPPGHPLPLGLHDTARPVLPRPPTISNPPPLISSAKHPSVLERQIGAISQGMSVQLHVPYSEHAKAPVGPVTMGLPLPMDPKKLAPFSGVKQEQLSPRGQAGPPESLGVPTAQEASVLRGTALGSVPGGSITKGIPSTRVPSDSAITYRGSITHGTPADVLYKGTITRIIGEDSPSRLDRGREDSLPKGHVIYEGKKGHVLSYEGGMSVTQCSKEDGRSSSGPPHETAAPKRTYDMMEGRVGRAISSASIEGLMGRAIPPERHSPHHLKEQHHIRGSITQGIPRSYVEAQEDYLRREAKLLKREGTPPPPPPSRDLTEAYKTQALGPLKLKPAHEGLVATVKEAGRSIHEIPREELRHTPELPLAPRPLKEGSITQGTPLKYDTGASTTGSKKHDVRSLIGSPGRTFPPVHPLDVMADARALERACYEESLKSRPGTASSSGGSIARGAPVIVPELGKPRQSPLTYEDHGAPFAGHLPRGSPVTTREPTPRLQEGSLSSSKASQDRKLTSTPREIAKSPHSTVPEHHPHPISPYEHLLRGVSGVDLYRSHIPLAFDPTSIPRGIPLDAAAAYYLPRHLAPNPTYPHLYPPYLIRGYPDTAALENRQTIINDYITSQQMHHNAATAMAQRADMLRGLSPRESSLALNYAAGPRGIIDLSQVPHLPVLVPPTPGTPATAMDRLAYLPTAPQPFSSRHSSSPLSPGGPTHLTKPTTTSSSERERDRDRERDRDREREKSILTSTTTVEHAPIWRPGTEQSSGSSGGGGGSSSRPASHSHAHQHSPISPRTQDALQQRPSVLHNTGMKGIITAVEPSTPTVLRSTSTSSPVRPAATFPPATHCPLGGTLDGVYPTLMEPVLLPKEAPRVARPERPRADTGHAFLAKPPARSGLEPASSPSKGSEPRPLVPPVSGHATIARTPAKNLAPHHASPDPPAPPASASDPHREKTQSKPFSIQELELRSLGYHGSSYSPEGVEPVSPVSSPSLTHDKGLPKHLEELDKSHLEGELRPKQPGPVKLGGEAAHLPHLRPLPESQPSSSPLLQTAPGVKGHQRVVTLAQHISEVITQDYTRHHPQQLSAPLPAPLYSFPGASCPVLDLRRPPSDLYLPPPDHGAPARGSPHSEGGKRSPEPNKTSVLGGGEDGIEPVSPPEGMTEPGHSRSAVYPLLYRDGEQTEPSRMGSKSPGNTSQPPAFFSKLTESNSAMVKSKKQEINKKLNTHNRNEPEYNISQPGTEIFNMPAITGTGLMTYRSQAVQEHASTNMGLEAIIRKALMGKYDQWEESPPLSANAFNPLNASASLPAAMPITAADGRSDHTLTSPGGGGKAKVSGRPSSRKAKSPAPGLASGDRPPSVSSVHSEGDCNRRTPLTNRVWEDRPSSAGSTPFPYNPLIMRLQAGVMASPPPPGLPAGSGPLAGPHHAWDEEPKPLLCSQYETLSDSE
Lysosomal acid glucosylceramidase, sequence (P04062 whole entry, the tested form may be a part): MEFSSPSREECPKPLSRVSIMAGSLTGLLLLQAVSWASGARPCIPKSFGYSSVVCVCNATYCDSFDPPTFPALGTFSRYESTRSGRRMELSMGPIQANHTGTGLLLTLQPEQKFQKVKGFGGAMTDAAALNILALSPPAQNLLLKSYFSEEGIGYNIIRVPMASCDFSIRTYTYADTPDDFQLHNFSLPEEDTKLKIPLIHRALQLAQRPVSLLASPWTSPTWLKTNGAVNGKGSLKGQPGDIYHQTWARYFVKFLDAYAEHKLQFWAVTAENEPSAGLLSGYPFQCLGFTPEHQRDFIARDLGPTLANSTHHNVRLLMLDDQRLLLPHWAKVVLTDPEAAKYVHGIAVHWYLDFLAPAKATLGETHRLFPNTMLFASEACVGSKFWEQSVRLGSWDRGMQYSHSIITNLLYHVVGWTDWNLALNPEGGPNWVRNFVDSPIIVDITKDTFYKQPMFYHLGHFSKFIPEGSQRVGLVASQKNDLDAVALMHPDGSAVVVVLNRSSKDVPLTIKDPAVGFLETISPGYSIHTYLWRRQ
Tumor necrosis factor, sequence (P01375 whole entry): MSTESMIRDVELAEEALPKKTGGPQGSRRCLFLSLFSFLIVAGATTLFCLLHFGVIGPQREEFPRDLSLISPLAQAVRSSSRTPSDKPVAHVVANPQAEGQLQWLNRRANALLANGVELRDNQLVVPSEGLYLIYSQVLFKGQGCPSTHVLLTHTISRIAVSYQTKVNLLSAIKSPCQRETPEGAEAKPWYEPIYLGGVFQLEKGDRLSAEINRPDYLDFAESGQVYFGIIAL
Nonstructural protein 1, sequence (Q194T2 whole entry): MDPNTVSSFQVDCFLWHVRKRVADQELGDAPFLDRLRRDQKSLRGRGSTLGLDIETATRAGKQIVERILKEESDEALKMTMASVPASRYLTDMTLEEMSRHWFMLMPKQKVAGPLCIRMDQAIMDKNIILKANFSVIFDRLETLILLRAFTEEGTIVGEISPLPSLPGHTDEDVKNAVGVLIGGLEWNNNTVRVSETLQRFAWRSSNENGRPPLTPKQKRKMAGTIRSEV
Glyceraldehyde-3-phosphate dehydrogenase, sequence (P04406 whole entry, the tested form may be a part): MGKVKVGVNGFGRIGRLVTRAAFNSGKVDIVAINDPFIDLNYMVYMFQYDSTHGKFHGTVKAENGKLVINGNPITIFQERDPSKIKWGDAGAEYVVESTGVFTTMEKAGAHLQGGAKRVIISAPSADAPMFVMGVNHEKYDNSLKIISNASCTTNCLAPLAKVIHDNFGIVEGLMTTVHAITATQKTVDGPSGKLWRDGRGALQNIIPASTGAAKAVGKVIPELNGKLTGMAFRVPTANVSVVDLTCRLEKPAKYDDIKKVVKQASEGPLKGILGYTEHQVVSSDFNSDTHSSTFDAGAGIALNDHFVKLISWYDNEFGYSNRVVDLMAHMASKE

Take `Cc1ccccc1CNc1ncnc2cc(Cl)ccc12`: the IC50 in assay [1] is 2.38 µM (active); in assay [2] it was 3.84 µM (active).

Regarding `O=C(N/N=C/c1cc(O)ccc1Br)c1cccnc1`, the results for the IC50 (at Nonstructural protein 1; in [4]) were 6.35 µM (active) and 4.8 µM (active), respectively. The EC50 with Streptococcus was 4.86 µM (active); in “cells [3]”, 165 µM (active); in assay [5], 1.85 µM (active); in the assay “cells [6]” it was > 350 µM (not active).

Consider `Cc1cc(C)c2nc(NNC(=O)c3ccc(S(=O)(=O)N4CCCC(C)C4)cc3)sc2c1` (centres undefined), for which the EC50 was > 55.7 µM (not active) on Galanin receptor type 2; 1.79 µM (active) in [7]; 11.5 µM (active) with Streptococcus; 3.22 µM (active) in assay [8]; 8.41 µM (active) in the assay “cells [3]”; > 150 µM (not active) at Streptokinase A. The figures for the 50% effective concentration (EC50) (in assay [5]; in “cells [6]”) were 0.55 µM (active) and > 350 µM (not active), respectively. In the assay on INS1, the AC50 is 1.81 µM (active).

In the case of `NC(=NO)c1nc(N2CCCCC2)nc(N2CCCCC2)n1`, the EC50 in assay [9] is listed as > 50 µM (not active).

For the compound `Nc1cc(-c2ccc(Cl)cc2)nn1S(=O)(=O)c1c(F)c(F)c(F)c(F)c1F`, the IC50 in assay [10] was > 20 µM (inactive); in assay [11], > 100 µM (not active); in assay [12], > 20 µM (inactive); on Bcl-2-related protein A1 [13] it was > 100 µM (not active); in the assay on HEK293, > 20 µM (inactive); against Bcl-2-related protein A1 [14], > 100 µM (not active). In addition, the IC50 at Tumor necrosis factor is > 20 µM (inactive).

Take `c1ccc(-c2nc(-c3ccccn3)c(-c3ccccn3)[nH]2)cc1`: on NADPH oxidase 1, the IC50 is > 17 µM (not active).

For the compound `Cc1ccc2nc(SCC(=O)Nc3ccc4c(c3)CCC4)n(-c3ccccc3)c(=O)c2c1`, the IC50 in assay [15] is 7.73 µM (active). For the same compound, the results for the CC50 in the assay on Vero [16] and in the assay with Vero [17] were 130 µM (active) and > 200 µM (active), respectively.

Take `O=C(O)c1ccccc1OCCOCCOc1ccccc1C(=O)O`: the IC50 in assay [18] is reported as 18.2 µM (not active).

As to `Cn1c(=O)c2c(nc(N/N=C/c3ccco3)n2C)n(C)c1=O`, in assay [19], the EC50 is 88.9 µM (not active).

On to `O=C(COC(=O)Cc1ccc(S(=O)(=O)N2CCOCC2)s1)NCc1ccc(Cl)cc1`, for which the results for the EC50 in [20] and in [21] were > 500 µM (not active) and 99.6 µM (active), respectively.

With `O=C(COc1ccc(Cl)cc1Cl)Nc1nnc(-c2ccco2)s1`, the EC50 at Bcl-2-like protein 10 is 17 µM (active).

As a reminder, the IC50 is the concentration that gives 50% inhibition. As usually defined, the EC50 is the concentration that produces a half-maximal response. In general, AC50 refers to the concentration giving half of the maximal activity seen. What is called CC50 is the concentration at which the toxic effect on the cells reaches its halfway point.
